Reference: ChEMBL document CHEMBL5463725, “Data for DCP probe BAY-277” (2023)

Columns and labels:
[1] = molecular target: 5-hydroxytryptamine receptor 7 (Homo sapiens) (UniProt P34969); conditions: Compound concentration 10.0 uM
[2] = molecular target: cGMP-inhibited 3',5'-cyclic phosphodiesterase 3A (Homo sapiens) (UniProt Q14432); assay: Inhibition of Phosphodiesterase PDE3A at 10.0 µM in the Eurofins Panlabs Safety Screen; conditions: Compound concentration 10.0 uM
[3] = molecular target: Delta-type opioid receptor (Homo sapiens) (UniProt P41143); conditions: Compound concentration 10.0 uM
[4] = molecular target: Beta-adrenergic receptor kinase 1 (Homo sapiens) (UniProt P25098); assay: Inhibition of GRK2(h) at 10.0 µM in the Eurofins Kinase panel; conditions: Compound concentration 10.0 uM
[5] = molecular target: T1, Muscarinic acetylcholine receptor M1 (Homo sapiens) (UniProt P11229); conditions: Compound concentration 10.0 uM
T1 sequence (whole entry): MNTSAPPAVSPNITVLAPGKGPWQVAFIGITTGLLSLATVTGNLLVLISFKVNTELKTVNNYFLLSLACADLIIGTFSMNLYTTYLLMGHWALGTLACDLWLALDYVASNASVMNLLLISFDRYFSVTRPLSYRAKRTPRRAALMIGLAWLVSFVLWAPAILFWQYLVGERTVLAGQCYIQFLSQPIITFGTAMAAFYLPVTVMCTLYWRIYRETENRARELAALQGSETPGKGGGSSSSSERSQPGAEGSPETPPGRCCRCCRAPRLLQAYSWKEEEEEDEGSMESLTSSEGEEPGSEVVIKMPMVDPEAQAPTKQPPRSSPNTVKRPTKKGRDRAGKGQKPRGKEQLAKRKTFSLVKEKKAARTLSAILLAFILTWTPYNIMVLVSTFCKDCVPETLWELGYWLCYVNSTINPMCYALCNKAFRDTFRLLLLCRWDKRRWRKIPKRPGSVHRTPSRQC

[6] = molecular target: Sodium-dependent dopamine transporter (Homo sapiens, UniProt Q01959); assay: Inhibition of Transporter, Dopamine (DAT) at 10.0 µM in the Eurofins Panlabs Safety Screen; conditions: Compound concentration 10.0 uM
[7] = molecular target: T2, Alpha-2B adrenergic receptor (Homo sapiens) (UniProt P18089); conditions: Compound concentration 10.0 uM
T2 sequence (whole entry): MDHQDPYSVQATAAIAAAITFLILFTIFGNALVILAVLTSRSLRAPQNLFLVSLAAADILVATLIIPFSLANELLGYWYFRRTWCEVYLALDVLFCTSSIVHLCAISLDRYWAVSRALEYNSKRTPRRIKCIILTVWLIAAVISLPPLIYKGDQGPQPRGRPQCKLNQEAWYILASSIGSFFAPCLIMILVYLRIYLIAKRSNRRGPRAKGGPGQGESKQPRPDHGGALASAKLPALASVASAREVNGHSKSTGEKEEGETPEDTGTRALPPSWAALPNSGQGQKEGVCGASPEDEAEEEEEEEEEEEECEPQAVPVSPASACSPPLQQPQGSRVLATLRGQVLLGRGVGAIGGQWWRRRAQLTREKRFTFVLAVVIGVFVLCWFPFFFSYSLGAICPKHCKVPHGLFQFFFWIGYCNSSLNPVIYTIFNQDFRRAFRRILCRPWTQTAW

[8] = molecular target: T3, Muscarinic acetylcholine receptor M2 (Homo sapiens) (UniProt P08172); assay: Inhibition of Muscarinic M2 at 10.0 µM in the Eurofins Panlabs Safety Screen; conditions: Compound concentration 10.0 uM
T3 sequence (whole entry): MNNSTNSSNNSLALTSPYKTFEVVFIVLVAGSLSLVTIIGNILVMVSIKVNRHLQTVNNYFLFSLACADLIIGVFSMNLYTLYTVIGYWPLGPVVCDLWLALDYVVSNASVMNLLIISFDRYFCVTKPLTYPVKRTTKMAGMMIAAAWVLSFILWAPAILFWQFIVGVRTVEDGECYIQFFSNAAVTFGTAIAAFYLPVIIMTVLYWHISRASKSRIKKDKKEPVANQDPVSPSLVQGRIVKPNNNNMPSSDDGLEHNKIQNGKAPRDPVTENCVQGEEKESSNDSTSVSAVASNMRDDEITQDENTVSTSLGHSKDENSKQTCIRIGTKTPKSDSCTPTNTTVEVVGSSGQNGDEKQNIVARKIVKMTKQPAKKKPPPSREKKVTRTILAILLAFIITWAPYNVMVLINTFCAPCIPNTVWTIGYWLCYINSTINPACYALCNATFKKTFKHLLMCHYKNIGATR

[9] = molecular target: Tyrosine-protein kinase SYK (Homo sapiens) (UniProt P43405); assay: Inhibition of Syk(h) at 10.0 µM in the Eurofins Kinase panel; conditions: Compound concentration 10.0 uM
[10] = molecular target: Kappa-type opioid receptor (Homo sapiens) (UniProt P41145); assay: Inhibition of Opiate kappa(OP2, KOP) at 10.0 µM in the Eurofins Panlabs Safety Screen; conditions: Compound concentration 10.0 uM
[11] = molecular target: Purinergic P2Y (Rattus norvegicus) (UniProt O35811+Q9EPX4+P49651+Q63371+P41232+O35881+Q6GUG4); assay: Inhibition of Purinergic P2Y, non-selective at 10.0 µM in the Eurofins Panlabs Safety Screen; assay type: protein assay; conditions: Compound concentration 10.0 uM
[12] = molecular target: Sigma intracellular receptor 2 (Homo sapiens, UniProt Q5BJF2); conditions: Compound concentration 10.0 uM
[13] = molecular target: Progesterone receptor (Homo sapiens) (UniProt P06401); assay: Inhibition of Progesterone PR-B at 10.0 µM in the Eurofins Panlabs Safety Screen; conditions: Compound concentration 10.0 uM
[14] = molecular target: Monoamine oxidase A (MAO-A) (Homo sapiens, UniProt P21397); assay: Inhibition of Monoamine Oxidase MAO-A at 10.0 µM in the Eurofins Panlabs Safety Screen; conditions: compound concentration 10 uM
[15] = molecular target: T4, Muscarinic acetylcholine receptor M2 (Homo sapiens, UniProt P08172); assay: GPCRScan assay: inhibition of M2; design: radioligand conc. used [nm] 0.2 – 1.0, parental cells stable CHO
T4 sequence (P08172 whole entry): T3 sequence (whole entry)

[16] = molecular target: Tyrosine-protein kinase Lck (Homo sapiens) (UniProt P06239); assay: Inhibition of Lck(h) at 10.0 µM in the Eurofins Kinase panel; conditions: Compound concentration 10.0 uM
[17] = molecular target: T5, Muscarinic acetylcholine receptor M1 (Homo sapiens, UniProt P11229); assay: GPCRScan assay: inhibition of M1; design: radioligand conc. used [nm] 0.3 – 1.2, parental cells stable CHO
T5 sequence (P11229 whole entry): T1 sequence (whole entry)

[18] = molecular target: Type-2 angiotensin II receptor (Homo sapiens) (UniProt P50052); assay: Inhibition of Angiotensin AT2 at 10.0 µM in the Eurofins Panlabs Safety Screen; conditions: Compound concentration 10.0 uM
[19] = molecular target: Tyrosine-protein kinase Blk (Homo sapiens) (UniProt P51451); assay: Inhibition of Blk(h) at 10.0 µM in the Eurofins Kinase panel; conditions: Compound concentration 10.0 uM
[20] = molecular target: Neuronal acetylcholine receptor; alpha3/beta4 (Homo sapiens) (UniProt P30926+P32297); assay: Inhibition of Nicotinic Acetylcholine alpha3beta4 at 10.0 µM in the Eurofins Panlabs Safety Screen; assay type: protein-complex assay; conditions: Compound concentration 10.0 uM
[21] = molecular target: Endothelin-1 receptor (Homo sapiens) (UniProt P25101); assay: Inhibition of Endothelin ETA at 10.0 µM in the Eurofins Panlabs Safety Screen; conditions: Compound concentration 10.0 uM
Sequence of Endothelin-1 receptor (Homo sapiens) (P25101 whole entry): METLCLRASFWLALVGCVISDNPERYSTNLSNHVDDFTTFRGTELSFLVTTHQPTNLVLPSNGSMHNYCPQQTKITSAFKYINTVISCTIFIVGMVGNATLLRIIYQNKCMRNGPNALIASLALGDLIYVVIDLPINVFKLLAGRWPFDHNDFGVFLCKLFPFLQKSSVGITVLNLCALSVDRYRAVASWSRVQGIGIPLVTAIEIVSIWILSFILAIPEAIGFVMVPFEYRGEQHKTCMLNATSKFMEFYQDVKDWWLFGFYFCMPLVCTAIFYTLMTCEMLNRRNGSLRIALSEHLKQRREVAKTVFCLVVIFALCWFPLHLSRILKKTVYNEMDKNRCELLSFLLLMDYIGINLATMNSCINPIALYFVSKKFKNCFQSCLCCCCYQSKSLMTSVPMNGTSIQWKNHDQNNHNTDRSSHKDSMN

Sequence of 5-hydroxytryptamine receptor 7 (Homo sapiens) (P34969 whole entry): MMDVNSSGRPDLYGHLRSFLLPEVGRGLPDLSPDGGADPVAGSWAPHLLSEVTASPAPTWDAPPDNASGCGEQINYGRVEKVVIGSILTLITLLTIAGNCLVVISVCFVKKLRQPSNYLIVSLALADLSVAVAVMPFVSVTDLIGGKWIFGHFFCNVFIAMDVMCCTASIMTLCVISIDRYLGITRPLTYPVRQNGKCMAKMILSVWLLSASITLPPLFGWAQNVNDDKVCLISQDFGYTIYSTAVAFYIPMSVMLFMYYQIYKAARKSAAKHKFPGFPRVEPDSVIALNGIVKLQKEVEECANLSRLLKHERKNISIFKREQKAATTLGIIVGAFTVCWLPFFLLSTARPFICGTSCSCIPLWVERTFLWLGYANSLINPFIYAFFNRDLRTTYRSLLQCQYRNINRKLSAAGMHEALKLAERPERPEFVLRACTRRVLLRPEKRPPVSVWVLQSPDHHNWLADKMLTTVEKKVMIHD
Sequence of Sigma intracellular receptor 2 (Q5BJF2 whole entry): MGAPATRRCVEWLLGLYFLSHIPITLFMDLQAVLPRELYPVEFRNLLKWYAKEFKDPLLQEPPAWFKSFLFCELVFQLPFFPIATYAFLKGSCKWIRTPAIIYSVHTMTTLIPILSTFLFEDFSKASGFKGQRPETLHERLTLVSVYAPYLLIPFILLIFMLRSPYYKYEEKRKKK
Sequence of Delta-type opioid receptor (Homo sapiens) (P41143 whole entry): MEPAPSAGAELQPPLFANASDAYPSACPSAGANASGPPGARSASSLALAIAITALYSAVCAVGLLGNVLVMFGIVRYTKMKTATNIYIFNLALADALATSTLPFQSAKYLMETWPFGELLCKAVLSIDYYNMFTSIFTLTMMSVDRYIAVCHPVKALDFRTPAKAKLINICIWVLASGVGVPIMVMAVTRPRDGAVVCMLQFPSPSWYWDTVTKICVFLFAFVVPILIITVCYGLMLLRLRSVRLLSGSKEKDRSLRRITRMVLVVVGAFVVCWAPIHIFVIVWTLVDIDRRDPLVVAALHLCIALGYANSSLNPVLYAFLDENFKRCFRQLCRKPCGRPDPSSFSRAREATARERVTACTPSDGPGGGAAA
Sequence of Progesterone receptor (Homo sapiens) (P06401 whole entry): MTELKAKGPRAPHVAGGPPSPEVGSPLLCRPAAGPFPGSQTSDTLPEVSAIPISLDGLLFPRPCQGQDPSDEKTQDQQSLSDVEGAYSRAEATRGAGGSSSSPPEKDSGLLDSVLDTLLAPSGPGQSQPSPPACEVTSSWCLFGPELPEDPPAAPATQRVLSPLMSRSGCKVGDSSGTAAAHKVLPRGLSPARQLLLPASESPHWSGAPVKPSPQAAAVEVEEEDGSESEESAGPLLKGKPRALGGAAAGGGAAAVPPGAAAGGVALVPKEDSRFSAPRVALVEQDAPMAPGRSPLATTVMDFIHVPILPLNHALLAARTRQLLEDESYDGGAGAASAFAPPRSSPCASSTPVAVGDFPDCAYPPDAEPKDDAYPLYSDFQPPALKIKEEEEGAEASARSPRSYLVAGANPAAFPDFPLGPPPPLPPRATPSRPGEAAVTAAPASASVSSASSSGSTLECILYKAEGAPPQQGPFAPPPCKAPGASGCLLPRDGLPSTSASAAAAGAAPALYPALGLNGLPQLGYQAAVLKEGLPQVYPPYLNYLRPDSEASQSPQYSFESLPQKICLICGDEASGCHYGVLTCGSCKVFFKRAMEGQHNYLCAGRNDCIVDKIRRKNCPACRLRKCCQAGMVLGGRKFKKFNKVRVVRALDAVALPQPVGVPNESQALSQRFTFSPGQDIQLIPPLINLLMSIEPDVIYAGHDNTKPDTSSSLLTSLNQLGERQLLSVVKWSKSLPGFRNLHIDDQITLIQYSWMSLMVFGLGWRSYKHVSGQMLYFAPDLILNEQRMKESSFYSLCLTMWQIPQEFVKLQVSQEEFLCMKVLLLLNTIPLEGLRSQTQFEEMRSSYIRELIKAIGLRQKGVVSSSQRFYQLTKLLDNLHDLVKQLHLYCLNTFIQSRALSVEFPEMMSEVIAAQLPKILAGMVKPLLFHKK
Sequence of Beta-adrenergic receptor kinase 1 (Homo sapiens) (P25098 whole entry): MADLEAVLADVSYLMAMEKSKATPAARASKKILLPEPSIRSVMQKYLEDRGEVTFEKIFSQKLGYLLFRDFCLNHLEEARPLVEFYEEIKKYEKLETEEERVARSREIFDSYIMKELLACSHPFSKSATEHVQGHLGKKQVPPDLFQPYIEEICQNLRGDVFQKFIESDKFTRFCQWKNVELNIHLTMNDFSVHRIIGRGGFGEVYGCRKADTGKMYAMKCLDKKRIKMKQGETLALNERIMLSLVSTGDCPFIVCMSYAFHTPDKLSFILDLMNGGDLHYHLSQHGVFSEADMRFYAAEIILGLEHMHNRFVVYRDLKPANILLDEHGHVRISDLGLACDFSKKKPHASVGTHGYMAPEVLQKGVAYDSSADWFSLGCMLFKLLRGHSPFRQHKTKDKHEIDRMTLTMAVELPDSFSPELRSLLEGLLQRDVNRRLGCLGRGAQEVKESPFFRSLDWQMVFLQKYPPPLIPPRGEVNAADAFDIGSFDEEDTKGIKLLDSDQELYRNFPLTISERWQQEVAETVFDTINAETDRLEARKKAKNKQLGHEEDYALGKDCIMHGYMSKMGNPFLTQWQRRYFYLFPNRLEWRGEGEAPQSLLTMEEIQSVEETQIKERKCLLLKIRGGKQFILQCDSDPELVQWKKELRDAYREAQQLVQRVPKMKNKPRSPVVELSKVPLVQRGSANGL
Sequence of Type-2 angiotensin II receptor (Homo sapiens) (P50052 whole entry): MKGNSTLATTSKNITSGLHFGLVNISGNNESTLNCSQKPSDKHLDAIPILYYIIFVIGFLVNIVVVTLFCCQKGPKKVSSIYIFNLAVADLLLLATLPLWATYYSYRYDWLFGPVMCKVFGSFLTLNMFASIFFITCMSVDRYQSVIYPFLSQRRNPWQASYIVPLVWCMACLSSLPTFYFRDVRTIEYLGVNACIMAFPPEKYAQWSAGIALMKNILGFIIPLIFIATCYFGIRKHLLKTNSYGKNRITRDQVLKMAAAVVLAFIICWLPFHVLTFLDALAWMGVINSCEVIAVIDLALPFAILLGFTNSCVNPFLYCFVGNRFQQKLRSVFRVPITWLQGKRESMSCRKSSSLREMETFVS
Sequence of Sodium-dependent dopamine transporter (Q01959 whole entry): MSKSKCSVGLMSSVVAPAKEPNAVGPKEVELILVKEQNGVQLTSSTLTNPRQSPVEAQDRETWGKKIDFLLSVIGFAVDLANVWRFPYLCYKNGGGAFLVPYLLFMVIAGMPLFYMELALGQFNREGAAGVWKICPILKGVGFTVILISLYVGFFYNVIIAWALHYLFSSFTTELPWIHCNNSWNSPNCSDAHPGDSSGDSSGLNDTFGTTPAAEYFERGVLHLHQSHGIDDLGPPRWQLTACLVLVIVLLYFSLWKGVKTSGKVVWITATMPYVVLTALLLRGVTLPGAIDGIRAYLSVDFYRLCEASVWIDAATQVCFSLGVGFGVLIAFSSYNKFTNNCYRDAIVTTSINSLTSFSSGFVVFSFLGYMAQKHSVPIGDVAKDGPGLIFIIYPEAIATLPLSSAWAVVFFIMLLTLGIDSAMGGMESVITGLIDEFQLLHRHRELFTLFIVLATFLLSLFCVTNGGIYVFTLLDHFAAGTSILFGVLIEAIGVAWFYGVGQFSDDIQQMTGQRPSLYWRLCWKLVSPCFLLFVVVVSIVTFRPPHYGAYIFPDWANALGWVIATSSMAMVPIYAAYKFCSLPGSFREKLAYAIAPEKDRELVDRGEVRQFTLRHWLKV
Sequence of Tyrosine-protein kinase Lck (Homo sapiens) (P06239 2-509 limits assumed): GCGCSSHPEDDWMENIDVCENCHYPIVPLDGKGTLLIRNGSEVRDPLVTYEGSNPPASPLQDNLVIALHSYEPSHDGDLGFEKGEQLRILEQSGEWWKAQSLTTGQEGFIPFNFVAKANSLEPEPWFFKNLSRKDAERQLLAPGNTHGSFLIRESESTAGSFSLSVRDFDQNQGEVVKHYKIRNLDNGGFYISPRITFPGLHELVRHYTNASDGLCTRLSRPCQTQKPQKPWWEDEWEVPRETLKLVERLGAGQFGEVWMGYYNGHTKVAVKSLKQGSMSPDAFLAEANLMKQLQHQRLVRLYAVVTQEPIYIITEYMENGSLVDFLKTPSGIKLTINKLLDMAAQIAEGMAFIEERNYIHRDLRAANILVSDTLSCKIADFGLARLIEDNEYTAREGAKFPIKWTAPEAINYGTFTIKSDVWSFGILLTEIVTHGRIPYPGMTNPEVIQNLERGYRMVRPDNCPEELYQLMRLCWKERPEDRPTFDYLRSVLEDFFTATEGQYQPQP
Sequence of Kappa-type opioid receptor (Homo sapiens) (P41145 whole entry): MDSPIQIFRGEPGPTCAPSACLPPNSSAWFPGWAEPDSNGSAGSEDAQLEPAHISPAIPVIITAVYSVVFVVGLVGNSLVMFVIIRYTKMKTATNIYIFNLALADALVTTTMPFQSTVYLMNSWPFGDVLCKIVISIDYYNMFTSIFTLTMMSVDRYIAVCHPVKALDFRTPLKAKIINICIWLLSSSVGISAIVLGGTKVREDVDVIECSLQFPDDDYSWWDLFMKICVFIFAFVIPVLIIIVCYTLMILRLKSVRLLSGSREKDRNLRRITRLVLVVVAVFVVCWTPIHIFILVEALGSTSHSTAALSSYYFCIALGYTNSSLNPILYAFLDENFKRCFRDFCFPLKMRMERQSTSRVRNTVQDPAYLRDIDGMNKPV

## O=C1NCCCC1N1Cc2cc(C3CCN(C(=O)CCCCCN4CCC(c5ccc(Oc6nn7cnnc7c7c6CCCC7)cc5)CC4)CC3)ccc2C1=O (stereo unspecified)
[1]
  inhibition: 32.5%
[2]
  inhibition: 6%
[3]
  inhibition: 19.5%
[4]
  inhibition: 15.1%
[5]
  inhibition: 60.4%
[6]
  inhibition: 39%
[7]
  inhibition: 8.66%
[8]
  inhibition: 47%
[9]
  inhibition: 20.4%
[10]
  inhibition: 35%
[11]
  inhibition: 12%
[12]
  inhibition: 76.4%
[13]
  inhibition: 19%
[14]
  inhibition at 10 µM: 18%
[15]; read-out: Ki
  Ki: 1070 nM
[15]; read-out: pKi (converted)
  Ki: 1050 nM
[16]
  inhibition: 11.9%
[17]; read-out: Ki
  Ki: 2190 nM
[17]; read-out: pKi (converted)
  Ki: 2190 nM
[18]
  inhibition: 17%
[19]
  inhibition: 26.1%
[20]
  inhibition: 6%
[21]
  inhibition: 3%

## O=C1CCC(N2Cc3cc(C4CCN(C(=O)CCCCCN5CCC(c6ccc(Oc7nn8cnnc8c8c7CCCC8)cc6)CC5)CC4)ccc3C2=O)C(=O)N1 (stereo unspecified)
[1]
  inhibition: 36.8%
[2]
  inhibition: 6%
[3]
  inhibition: 17.5%
[4]
  inhibition: 11.9%
[5]
  inhibition: 71.3%
[6]
  inhibition: 38%
[7]
  inhibition: 8.76%
[8]
  inhibition: 53%
[9]
  inhibition: 25%
[10]
  inhibition: 18%
[11]
  inhibition: 4%
[12]
  inhibition: 75.9%
[13]
  inhibition: 24%
[14]
  inhibition at 10 µM: 16%
[15]; read-out: Ki
  Ki: 677 nM
[15]; read-out: pKi (converted)
  Ki: 676 nM
[16]
  inhibition: 14.3%
[17]; read-out: Ki
  Ki: 1670 nM
[17]; read-out: pKi (converted)
  Ki: 1660 nM
[18]
  inhibition: 13%
[19]
  inhibition: 13.9%
[20]
  inhibition: 24%
[21]
  inhibition: -1%
